The IC50 is the concentration at which inhibition is half-maximal. By EC50 is commonly meant the concentration needed to bring the measured effect to its halfway point.

Data set [1] addresses T1, Serine/threonine-protein kinase haspin (Homo sapiens, UniProt Q8TF76).
T1 sequence (Q8TF76 whole entry): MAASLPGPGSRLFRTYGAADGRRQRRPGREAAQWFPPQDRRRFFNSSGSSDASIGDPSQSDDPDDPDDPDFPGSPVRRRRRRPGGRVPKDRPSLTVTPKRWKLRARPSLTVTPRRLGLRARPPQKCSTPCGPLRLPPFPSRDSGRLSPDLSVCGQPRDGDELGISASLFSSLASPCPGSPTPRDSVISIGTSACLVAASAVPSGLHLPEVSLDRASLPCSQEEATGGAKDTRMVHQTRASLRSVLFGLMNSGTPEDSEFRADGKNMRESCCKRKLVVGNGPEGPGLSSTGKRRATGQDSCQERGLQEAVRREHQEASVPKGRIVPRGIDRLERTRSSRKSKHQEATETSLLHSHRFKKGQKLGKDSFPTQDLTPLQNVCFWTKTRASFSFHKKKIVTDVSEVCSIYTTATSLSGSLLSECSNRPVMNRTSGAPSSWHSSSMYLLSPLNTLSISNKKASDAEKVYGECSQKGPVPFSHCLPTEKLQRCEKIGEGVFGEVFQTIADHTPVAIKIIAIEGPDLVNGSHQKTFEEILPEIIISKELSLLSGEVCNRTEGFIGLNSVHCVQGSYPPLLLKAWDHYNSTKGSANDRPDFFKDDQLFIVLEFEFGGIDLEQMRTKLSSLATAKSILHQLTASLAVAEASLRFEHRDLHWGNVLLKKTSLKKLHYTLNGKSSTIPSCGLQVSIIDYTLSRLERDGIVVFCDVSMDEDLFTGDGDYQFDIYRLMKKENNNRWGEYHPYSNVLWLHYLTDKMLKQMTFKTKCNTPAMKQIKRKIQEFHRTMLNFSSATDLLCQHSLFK

Data set [2] addresses Dual specificity tyrosine-phosphorylation-regulated kinase 1A (Rattus norvegicus, UniProt Q63470). Nature of the data set: Inhibition of recombinant rat DYRK1A (1 to 499 residues ) expressed in bacterial expression system using KKISGRLSPIMTEQ as substrate measured after 30 mins in presence of ATP by ADP-Glo assay. A general note: ADP-Glo first removes unused ATP, then detects ADP through luciferase.

In data set [3] the target is Dual specificity protein kinase CLK1 (Mus musculus, UniProt P22518). Nature of the data set: Inhibition of recombinant mouse CLK1 expressed in bacteria using GRSRSRSRSRSR as substrate in presence of ATP measured after 30 mins by ADP-Glo assay.
Chain of Dual specificity protein kinase CLK1 (P22518 whole entry): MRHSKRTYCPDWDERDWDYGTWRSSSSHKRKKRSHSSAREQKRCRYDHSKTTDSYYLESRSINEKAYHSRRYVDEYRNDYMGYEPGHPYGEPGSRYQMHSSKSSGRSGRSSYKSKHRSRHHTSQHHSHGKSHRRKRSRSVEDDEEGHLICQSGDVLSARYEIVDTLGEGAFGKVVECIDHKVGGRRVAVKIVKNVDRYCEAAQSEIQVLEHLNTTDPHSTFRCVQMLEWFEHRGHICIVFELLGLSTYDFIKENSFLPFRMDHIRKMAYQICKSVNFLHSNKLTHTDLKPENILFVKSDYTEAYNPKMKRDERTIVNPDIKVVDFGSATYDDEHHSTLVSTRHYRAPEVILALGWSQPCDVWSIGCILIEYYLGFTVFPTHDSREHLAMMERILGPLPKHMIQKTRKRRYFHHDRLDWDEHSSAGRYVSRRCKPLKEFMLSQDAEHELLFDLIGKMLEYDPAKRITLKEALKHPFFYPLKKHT
Data set [4] addresses Serine/threonine-protein kinase PLK3 (Homo sapiens, UniProt Q9H4B4). Nature of the data set: Inhibition of human recombinant PLK3 in presence of ATP by kinomescan assay.
Data set [5] addresses Serine/threonine-protein kinase PLK2 (Homo sapiens, UniProt Q9NYY3). In words: Inhibition of human PLK2 in presence of ATP by kinomescan assay.
The target in data set [6] is Serine/threonine-protein kinase PLK1 (Homo sapiens, UniProt P53350). Nature of the data set: Inhibition of human PLK1 in presence of ATP by kinomescan assay.
Data set [7] concerns the target Death-associated protein kinase 3 (Homo sapiens, UniProt O43293). Nature of the data set: Inhibition of human DAPK3 in presence of ATP by kinomescan assay.
A short description of data set [8]: Cytotoxicity against human TERT-RPE1 cells assessed as reduction in cell viability measured after 48 hrs by MTS assay. In kind it is toxicity, cell-based.
The nature of data set [9]: Inhibition of human recombinant CDK9 expressed in baculovirus insect Sf9 cells using YSPTSPSYSPTSPSYSPTSPSKKKK as substrate measured after 30 mins in presence of ATP by ADP-Glo assay.
For the next data set, the system named is HCT-116. In words: Cytotoxicity against human HCT-116 cells assessed as reduction in cell viability measured after 48 hrs by MTS assay. The settings on record: HCT-116, 48 h.
For the next data set, the system named is SH-SY5Y. Nature of the data set: Cytotoxicity against human SH-SY5Y cells assessed as reduction in cell viability measured after 48 hrs by MTS assay. (Tetrazolium assays rely on reduction of a dye to a coloured formazan, in cell work by metabolically active cells.)
The test system of another data set is HBL-100. Nature of the data set: Cytotoxicity against human HBL-100 cells assessed as reduction in cell viability measured after 48 hrs by MTS assay. Particulars: HBL-100, 48 h.
For another data set, the system named is U2OS. Nature of the data set: Cytotoxicity against human U2OS cells assessed as reduction in cell viability measured after 48 hrs by MTS assay.
Data set [10] concerns the target Glycogen synthase kinase-3 beta (Homo sapiens, UniProt P49841). In words: Inhibition of human recombinant GSK3beta expressed in baculovirus in Sf9 insect cells using YRRAAVPPSPSLSRHSSPHQSpEDEEE as substrate measured after 30 mins by ADP-Glo kinase assay.
The target in data set [11] is Tyrosine-protein kinase ABL1 (Homo sapiens, UniProt P00519). In words: Inhibition of human recombinant ABL1 expressed in baculovirus sf9 insect cells using EAIYAAPFAKKK as substrate measured after 30 mins in presence of ATP by ADP-Glo assay.
Chain of Tyrosine-protein kinase ABL1 (P00519 whole entry): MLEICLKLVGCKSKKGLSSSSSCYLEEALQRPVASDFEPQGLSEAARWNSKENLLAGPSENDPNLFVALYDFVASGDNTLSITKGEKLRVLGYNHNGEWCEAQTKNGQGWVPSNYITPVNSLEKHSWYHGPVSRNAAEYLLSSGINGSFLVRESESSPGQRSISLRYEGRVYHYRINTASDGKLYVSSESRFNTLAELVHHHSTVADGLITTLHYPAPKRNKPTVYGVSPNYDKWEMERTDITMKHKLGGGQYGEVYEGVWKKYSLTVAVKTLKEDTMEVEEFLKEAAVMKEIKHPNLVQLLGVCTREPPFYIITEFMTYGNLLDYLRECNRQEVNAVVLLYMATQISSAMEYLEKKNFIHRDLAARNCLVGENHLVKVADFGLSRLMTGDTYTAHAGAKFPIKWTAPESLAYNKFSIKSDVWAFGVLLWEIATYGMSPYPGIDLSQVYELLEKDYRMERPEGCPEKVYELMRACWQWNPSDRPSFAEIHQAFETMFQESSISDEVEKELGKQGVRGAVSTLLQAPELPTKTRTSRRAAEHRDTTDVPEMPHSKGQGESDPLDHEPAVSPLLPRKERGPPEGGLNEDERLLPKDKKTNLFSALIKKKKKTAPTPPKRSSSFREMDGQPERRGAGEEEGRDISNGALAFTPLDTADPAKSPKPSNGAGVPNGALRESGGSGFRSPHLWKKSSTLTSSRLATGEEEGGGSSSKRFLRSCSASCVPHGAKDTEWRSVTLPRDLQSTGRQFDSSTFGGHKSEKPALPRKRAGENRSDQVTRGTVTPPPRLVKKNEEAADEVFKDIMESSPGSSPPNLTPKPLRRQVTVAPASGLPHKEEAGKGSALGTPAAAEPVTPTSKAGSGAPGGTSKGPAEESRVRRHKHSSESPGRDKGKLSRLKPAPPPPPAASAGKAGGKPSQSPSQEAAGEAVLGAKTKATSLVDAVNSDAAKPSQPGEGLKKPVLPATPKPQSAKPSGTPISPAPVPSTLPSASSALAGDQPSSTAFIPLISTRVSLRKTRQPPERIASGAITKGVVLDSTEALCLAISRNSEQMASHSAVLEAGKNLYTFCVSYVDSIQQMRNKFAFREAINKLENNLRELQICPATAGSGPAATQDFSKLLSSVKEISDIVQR
The target of data set [12] is T2, Tyrosine-protein kinase JAK3 (Homo sapiens, UniProt P52333).
T2 sequence (P52333 whole entry): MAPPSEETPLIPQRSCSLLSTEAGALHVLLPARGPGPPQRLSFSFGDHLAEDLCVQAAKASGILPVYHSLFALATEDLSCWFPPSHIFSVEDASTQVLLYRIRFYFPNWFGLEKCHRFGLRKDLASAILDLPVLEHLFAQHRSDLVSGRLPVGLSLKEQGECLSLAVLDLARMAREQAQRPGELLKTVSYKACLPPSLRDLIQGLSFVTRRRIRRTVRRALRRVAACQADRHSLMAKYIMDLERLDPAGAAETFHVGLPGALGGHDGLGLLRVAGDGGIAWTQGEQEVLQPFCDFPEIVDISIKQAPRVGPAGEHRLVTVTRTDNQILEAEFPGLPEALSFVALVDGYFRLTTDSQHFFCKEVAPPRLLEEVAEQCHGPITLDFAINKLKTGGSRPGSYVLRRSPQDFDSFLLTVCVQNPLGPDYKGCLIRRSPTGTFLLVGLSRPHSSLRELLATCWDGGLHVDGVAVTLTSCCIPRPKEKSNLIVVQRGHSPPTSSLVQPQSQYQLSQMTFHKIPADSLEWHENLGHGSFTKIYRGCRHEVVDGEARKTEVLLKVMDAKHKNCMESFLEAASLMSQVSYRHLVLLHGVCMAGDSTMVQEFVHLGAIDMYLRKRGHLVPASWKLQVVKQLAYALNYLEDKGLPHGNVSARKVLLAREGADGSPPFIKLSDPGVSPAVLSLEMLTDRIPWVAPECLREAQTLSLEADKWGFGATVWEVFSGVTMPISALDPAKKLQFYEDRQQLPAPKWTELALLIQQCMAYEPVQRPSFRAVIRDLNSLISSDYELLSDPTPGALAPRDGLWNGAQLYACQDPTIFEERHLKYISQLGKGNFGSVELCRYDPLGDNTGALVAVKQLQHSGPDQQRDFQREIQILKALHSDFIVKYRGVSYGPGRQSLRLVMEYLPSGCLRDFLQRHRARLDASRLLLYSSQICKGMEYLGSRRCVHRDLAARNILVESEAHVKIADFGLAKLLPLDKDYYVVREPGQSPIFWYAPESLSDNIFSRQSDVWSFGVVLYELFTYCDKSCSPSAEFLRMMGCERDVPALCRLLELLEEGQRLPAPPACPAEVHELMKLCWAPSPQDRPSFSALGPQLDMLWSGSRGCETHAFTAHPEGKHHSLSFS
Nature of the data set: Inhibition of human recombinant JAK3 expressed in baculovirus sf9 insect cells using GGEEEEYFELVKKKK as substrate measured after 30 mins in presence of ATP by ADP-Glo assay.

The target of data set [13] is Serine/threonine-protein kinase pim-1 (Homo sapiens, UniProt P11309). In words: Inhibition of recombinant human PIM1 expressed in bacterial expression system using histone H1 as substrate measured after 30 mins in presence of ATP by ADP-Glo assay.
Chain of Serine/threonine-protein kinase pim-1 (P11309 whole entry): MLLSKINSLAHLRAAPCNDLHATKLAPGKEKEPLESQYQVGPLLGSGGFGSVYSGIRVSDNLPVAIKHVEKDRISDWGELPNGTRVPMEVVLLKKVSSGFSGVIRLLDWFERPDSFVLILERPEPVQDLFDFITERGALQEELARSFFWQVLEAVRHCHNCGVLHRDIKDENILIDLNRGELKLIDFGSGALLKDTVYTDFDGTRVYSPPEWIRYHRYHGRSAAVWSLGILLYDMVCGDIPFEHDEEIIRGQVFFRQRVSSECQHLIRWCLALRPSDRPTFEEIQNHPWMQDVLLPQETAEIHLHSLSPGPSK
The target in data set [14] is Cyclin-dependent kinase 5/CDK5 activator 1 (Homo sapiens, UniProt Q00535). In words: Inhibition of human recombinant CDK5/p25 expressed in bacterial expression system using histone H1 as substrate in presence of ATP at measured after 30 mins by ADP-Glo assay.
In data set [15] the target is Casein kinase I isoform epsilon (Homo sapiens, UniProt P49674). Nature of the data set: Inhibition of human recombinant CK1 epsilon expressed in baculovirus in sf9 insect cells using RRKHAAIGSpAYSITA as substrate in presence of ATP measured after 30 mins by ADP-Glo assay.
Chain of Casein kinase I isoform epsilon (P49674 whole entry, canonical isoform): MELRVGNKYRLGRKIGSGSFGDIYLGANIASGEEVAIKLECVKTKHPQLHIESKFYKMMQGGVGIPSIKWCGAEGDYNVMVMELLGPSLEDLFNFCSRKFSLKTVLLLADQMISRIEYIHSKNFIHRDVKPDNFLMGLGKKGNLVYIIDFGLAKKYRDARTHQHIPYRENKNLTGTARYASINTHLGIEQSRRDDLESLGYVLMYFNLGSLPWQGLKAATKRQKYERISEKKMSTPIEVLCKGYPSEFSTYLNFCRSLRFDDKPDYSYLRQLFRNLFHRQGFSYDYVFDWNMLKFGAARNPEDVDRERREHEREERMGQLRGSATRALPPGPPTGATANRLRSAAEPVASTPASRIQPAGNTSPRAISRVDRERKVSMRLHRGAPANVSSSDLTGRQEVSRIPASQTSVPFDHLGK

Chain of Glycogen synthase kinase-3 beta (P49841 whole entry): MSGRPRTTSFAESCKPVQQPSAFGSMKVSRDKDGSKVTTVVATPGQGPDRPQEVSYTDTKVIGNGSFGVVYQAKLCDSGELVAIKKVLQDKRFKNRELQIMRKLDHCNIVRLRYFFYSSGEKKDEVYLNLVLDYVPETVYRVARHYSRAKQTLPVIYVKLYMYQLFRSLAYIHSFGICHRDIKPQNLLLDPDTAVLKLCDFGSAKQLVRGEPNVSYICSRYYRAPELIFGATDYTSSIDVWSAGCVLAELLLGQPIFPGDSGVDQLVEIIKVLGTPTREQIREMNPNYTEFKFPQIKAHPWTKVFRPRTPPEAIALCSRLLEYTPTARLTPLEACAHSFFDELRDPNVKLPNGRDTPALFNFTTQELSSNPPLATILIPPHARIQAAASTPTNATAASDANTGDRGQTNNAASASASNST
Chain of Death-associated protein kinase 3 (O43293 whole entry): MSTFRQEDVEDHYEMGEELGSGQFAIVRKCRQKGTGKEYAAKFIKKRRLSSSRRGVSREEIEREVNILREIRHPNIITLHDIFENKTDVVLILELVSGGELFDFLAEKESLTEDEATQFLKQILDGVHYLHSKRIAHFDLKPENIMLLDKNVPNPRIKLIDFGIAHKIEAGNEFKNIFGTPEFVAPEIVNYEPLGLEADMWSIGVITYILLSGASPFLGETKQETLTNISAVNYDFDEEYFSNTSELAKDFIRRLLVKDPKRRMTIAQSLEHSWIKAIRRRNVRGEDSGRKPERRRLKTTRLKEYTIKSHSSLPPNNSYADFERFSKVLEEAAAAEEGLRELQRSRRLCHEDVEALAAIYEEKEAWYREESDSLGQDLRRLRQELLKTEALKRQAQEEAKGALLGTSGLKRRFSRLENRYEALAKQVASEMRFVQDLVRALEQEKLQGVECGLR
Chain of Serine/threonine-protein kinase PLK2 (Q9NYY3 whole entry): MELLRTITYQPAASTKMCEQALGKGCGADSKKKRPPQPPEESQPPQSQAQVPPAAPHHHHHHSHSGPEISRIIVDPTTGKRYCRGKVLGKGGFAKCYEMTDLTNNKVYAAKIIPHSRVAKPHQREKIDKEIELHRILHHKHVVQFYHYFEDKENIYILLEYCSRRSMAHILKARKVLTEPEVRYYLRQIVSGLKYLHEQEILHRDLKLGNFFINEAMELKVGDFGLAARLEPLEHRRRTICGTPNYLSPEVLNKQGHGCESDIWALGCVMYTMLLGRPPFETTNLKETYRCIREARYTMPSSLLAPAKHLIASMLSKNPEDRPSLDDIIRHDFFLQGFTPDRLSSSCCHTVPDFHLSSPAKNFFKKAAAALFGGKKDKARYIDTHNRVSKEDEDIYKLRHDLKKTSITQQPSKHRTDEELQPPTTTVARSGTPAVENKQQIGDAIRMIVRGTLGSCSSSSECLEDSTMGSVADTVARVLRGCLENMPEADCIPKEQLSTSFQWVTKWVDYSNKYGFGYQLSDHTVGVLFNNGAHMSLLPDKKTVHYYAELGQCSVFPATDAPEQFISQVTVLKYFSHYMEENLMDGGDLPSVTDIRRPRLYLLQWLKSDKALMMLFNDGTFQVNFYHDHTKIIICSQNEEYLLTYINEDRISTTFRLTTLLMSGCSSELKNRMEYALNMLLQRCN
Chain of Serine/threonine-protein kinase PLK3 (Q9H4B4 whole entry): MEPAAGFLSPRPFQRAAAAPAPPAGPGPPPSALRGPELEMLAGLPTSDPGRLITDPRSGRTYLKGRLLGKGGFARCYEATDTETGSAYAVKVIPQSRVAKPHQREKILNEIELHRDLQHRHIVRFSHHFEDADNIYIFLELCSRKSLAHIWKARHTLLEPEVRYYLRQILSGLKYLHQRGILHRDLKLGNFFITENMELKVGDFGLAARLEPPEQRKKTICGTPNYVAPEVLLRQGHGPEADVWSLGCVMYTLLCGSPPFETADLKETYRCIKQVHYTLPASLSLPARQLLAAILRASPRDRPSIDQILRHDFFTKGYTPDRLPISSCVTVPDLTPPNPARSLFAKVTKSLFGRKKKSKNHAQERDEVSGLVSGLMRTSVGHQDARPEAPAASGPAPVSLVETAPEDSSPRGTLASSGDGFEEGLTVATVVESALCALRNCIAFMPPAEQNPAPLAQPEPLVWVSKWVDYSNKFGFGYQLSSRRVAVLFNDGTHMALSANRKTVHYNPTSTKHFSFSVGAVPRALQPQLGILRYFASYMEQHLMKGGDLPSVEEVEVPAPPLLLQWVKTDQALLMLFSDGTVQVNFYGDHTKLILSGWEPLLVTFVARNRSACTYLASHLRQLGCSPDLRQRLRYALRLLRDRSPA

`CCCSc1ncc2cc3cnccc3c([N+](=O)[O-])c2n1`: the midpoint of inhibition in data set [1], the IC50, lay at 169 nM.
On to `CCCCSc1ncc2cc3cnccc3c(N)c2n1`, for which the IC50 in data set [2] turned out to be 132 nM; in [1], 69 nM; in data set [3] it was 92 nM.
Turning to `COc1ncc2cc3cnccc3c([N+](=O)[O-])c2n1`, the IC50 in data set [4] was determined as 117 nM; in data set [5], 125 nM; in data set [6], 294 nM; in [7], 578 nM. In data set [8], the EC50 at 48 h turned out to be 3200 nM.
Molecule `CCOC(=O)CCSc1ncc2cc3cnccc3c([N+](=O)[O-])c2n1` had an IC50 in data set [1] of 897 nM.
In turn, `CCC(C)Sc1ncc2cc3cnccc3c([N+](=O)[O-])c2n1` (centres undefined) yielded an IC50 in data set [1] of 484 nM.
As to `CCCSc1ncc2cc3cnccc3c(N)c2n1`, the IC50 in [2] was 148 nM; in data set [1], 65 nM; in [3], 90 nM.
The molecule `CCCCSc1ncc2cc3cnccc3c([N+](=O)[O-])c2n1` displayed an IC50 in [1] of 1040 nM.
The same measure, in the same setting: the value for `COc1ncc2cc3cnccc3c(N)c2n1` was 159 nM; that for `CCC(C)Sc1ncc2cc3cnccc3c(N)c2n1` (centres undefined) was 202 nM.
`CSc1ncc2cc3cnccc3c(N)c2n1`: the IC50 in data set [2] is 47 nM; in data set [1] it was 12 nM; in data set [3], 37 nM; in data set [9], 189 nM.
Take `Nc1ccc2cc3cnccc3c([N+](=O)[O-])c2n1`: the 50% effective concentration (EC50) in the data set on HCT-116 stood at 200 nM; with SH-SY5Y it was 200 nM; in the data set with HBL-100, 800 nM; in the data set with U2OS, 300 nM. Further, the 50% inhibitory concentration (IC50) in data set [2] is 87 nM; in [1] it was 3 nM; in data set [3] it was 20 nM; in data set [9], 24 nM; in data set [10], 418 nM. Moreover, the EC50 at 48 h in data set [8] came to 400 nM.
With `CSc1ncc2cc3cnccc3c([N+](=O)[O-])c2n1`, the figures for the concentration giving a half-maximal response (EC50) with HCT-116, in the data set on SH-SY5Y and in the data set on HBL-100 were 1100 nM, 1200 nM and 1300 nM, respectively. Also, the figures for the IC50 in data set [1] and in [9] were 119 nM and 407 nM, respectively. In data set [8], the concentration giving a half-maximal response (EC50) at 48 h amounted to 800 nM.
As for `CCSc1ncc2cc3cnccc3c([N+](=O)[O-])c2n1`, the IC50 in data set [2] turned out to be 515 nM; in data set [1] it was 91 nM; in data set [3], 148 nM.
Take `CCCNc1ccc2ncc(-c3ccc4[nH]ncc4c3)n2n1`: the IC50 turned out to be 162 nM in data set [11]; 13 nM in data set [2]; 119 nM in data set [12]; 29 nM in data set [13]; 8 nM in data set [3]; 41 nM in [14]. Besides, the IC50 in data set [15] worked out at 99 nM; in data set [10], 53 nM.
In data set [1], `CC(C)Sc1ncc2cc3cnccc3c([N+](=O)[O-])c2n1` had an IC50 of 114 nM.
On the same count and under the same terms, the value for `CCCCCSc1ncc2cc3cnccc3c(N)c2n1` was 432 nM.
Same read-out and setting: the same measure for `CCSc1ncc2cc3cnccc3c(N)c2n1`: 124 nM.
With `CC(C)Sc1ncc2cc3cnccc3c(N)c2n1`, the IC50 was determined as 594 nM in [2], 56 nM in [1] and 72 nM in data set [3].

For the origin of these results see ChEMBL document CHEMBL5154885, “Synthesis and biological evaluation of Haspin inhibitors: Kinase inhibitory potency and cellular activity” (Eur J Med Chem, 2022).
